A word on the solubility: it is how much of the substance goes into solution per volume. A word on the IC50: it is the concentration that inhibits the measured activity by half.

SMILES strings stand for the structures. In brackets after ≈: the same amount, converted by molar mass.

Data set [1] is described as follows: Pharmacokinetic study in mice, blood levels by LC:MS. The data set is classed as in vivo, NOD-SCID mice. The conditions noted are these: 10 mg/kg oral gavage after 1-aminobenzotriazole 50 mg/kg. As for the experimental part: All experiments with live animals were approved in advance by the Ethical Review Committee of the University of Dundee in accordance with the UK Animal (Scientific Procedures) Act 1986. Two female mice of the NOD-SCID strain were obtained from Charles River Laboratories, UK. The animals were maintained under a 12 h light/12 h dark cycle. The animals were allowed ad libitum access to food (RM1; Special Diet Services, UK) and water. Temperature and relative humidity were maintained between 20 and 24 °C and 45 and 65%, respectively. All animals received a minimum of 14 days acclimatization prior to the start of the study. 1-Aminobenzotriazole was dissolved on the day of dosing in Milli-Q ultrapure water at a concentration of 10 mg/mL and dosed via oral gavage at a dose level of 50 mg/kg. BAY-3827 was suspended in 0.5% hydroxypropylmethylcellulose (Methocel K15M Premium USP/EP; Colorcon) in water, at a concentration of 2 mg/mL. The BAY-3827 formulation was dosed via oral gavage at a dose level of 10 mg/kg, 30 min after the administration of 1-aminobenzotriazole. The animals were observed regularly after dose administration. […]
A Waters Acquity Performance Liquid Chromatography coupled to a Waters Xevo TQ-S tandem mass spectrometer was used for the quantification of BAY-3827, using donepezil hydrochloride as an internal standard. […]
Calibration samples, QC samples, blanks, double blanks, and study samples were extracted through protein precipitation. […] The resultant supernatant from the calibration samples, QCs, double blanks, and blanks (200 µL) and study samples (80 µL) was then transferred to HPLC glass vials containing Milli-Q water (100 µL or 40 µL, respectively) to reduce the solvent strength ready for UHPLC/MS analysis.
The sample concentrations were determined via a linear regression (weighting: 1/x) on the calibration samples using Waters TargetLynx application (v4.2). […] The lower limit of quantification (LLoQ) was determined as the analyte response with ≥three times the analyte response of the blanks (plasma with internal standard but not analyte). […]

The next data set is described as follows: Aqueous solubility. The conditions noted are these: aqueous medium (not further specified). Format: physicochemical.
Data set [2] addresses T1, LKB1 (human LKB1:STRADα:MO25α complex) (Homo sapiens, UniProt Q15831).
T1 construct: made in house
T1 sequence (Q15831 1-433): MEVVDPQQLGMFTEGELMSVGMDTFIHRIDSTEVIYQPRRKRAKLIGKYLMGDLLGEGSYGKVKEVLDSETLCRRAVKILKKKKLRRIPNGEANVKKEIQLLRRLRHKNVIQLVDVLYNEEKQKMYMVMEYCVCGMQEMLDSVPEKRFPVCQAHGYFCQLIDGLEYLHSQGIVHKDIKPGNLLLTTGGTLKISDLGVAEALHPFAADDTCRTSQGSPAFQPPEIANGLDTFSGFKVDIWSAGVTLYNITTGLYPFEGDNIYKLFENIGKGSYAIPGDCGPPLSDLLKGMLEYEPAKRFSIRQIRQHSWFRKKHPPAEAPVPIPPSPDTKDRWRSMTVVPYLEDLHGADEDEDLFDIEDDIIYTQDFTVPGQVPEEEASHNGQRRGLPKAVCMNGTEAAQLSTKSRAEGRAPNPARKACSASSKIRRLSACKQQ
T1 sequence (Q7RTN6 1-431 partner): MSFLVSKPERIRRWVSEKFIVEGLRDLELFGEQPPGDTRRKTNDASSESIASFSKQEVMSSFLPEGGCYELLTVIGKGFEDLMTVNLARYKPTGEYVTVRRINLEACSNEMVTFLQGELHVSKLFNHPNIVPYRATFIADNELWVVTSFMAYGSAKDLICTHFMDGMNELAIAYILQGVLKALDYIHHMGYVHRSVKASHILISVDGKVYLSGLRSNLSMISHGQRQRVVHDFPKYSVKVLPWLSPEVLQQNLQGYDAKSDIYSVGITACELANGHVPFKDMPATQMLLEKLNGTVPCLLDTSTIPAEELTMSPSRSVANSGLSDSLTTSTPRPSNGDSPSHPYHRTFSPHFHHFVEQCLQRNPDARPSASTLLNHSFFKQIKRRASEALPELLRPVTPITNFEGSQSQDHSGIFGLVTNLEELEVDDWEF
T1 sequence (Q9Y376 1-341 partner): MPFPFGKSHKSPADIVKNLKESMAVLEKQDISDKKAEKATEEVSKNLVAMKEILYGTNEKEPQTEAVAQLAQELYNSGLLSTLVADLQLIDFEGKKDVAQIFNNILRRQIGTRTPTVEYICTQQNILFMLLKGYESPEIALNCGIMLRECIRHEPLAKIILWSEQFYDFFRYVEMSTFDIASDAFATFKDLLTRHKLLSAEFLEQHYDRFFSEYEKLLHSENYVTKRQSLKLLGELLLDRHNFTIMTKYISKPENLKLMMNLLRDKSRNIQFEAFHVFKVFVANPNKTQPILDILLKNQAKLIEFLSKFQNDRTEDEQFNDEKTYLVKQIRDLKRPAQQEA
Conditions: single fixed inhibitor concentration (0.25 µM); cited from earlier work.

The target of another data set is human α1β1γ1 complex (Homo sapiens, UniProt Q13131). Conditions: previous estimate; read-out: IC50, inhibition of α1β1γ1; cited from earlier work.
human α1β1γ1 complex, sequence (Q13131 whole entry): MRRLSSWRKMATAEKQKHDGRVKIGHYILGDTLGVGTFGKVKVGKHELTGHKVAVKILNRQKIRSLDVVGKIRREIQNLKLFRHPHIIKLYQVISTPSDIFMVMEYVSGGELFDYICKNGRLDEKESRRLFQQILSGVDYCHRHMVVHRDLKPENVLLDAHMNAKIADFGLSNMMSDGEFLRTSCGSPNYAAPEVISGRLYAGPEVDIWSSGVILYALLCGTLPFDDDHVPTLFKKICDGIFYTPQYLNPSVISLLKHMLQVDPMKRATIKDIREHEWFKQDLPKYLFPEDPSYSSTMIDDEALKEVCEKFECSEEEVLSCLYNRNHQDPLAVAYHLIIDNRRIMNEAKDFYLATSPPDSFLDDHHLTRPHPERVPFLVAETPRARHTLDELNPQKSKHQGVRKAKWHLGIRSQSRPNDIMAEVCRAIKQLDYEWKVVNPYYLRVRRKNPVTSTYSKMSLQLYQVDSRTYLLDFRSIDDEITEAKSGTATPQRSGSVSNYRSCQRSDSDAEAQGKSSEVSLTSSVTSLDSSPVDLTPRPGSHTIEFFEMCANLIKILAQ
human α1β1γ1 complex, sequence (P54619 whole entry, further chain): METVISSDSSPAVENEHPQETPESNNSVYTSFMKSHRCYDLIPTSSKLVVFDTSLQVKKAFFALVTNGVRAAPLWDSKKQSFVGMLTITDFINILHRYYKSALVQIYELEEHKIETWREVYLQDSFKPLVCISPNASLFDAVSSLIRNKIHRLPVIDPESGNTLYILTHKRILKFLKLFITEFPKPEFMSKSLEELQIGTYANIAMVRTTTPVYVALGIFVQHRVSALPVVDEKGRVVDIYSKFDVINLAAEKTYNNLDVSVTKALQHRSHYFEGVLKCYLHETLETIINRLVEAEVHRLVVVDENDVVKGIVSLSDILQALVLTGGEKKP
human α1β1γ1 complex, sequence (Q9Y478 2-270, further chain): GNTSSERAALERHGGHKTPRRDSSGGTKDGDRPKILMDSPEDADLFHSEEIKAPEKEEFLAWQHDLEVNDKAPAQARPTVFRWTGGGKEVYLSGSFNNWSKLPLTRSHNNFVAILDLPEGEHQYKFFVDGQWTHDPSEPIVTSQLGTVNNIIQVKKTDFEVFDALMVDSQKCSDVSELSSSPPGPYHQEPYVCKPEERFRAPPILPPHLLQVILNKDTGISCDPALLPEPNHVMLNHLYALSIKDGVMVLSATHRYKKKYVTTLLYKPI

In turn, `CCc1ccccc1C(=O)Nc1n[nH]c2c(C)c(F)c(C3C(C#N)=C(C)N(C)C(C)=C3C#N)cc12` [BAY-3827] registered a blood concentration in data set [1] (after 4–8 h) of 20 to 30 nM. Also, in data set [1] (at 60 min), the “peak blood concentration (mean)” value is 90 nM and ≈ 90 nM. The compound also gave a concentration at 8 h in data set [1] (female, NOD-SCID, mouse, whole blood, after 8 h) of 20 nM. Also, the concentration in solution in the data set “Aqueous solubility” (solubility) was 0.3 µg/mL (≈ 0.64 µM).

`CNC(=O)c1ccccc1Oc1nc(Nc2cc(OC)c(OC)c(OC)c2)ncc1Br` [SBI-0206965]: in data set [2], the “inhibition of LKB1” value is “did not inhibit”. At human α1β1γ1 complex, the IC50 was 300 nM.
